In ChEMBL document CHEMBL5608223, “Chemical Probes to Investigate Central Nervous System Disorders: Design, Synthesis and Mechanism of Action of a Potent Human Serine Racemase Inhibitor” (ACS Med Chem Lett, 2024) one finds IC50 and Activity data, which are given here for five compounds.

For experiment [1], the target named is T1, Phosphoserine aminotransferase (Homo sapiens, UniProt Q9Y617).
T1 sequence (Q9Y617 whole entry): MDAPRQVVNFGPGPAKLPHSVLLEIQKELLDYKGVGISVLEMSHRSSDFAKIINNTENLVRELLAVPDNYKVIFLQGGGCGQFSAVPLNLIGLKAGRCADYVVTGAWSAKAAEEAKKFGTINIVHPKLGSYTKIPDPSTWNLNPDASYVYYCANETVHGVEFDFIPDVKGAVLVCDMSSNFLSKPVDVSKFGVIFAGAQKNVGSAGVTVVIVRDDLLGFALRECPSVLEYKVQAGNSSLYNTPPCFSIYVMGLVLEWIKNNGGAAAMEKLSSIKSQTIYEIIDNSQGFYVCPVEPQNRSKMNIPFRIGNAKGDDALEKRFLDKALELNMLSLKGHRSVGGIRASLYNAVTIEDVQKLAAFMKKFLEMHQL
The experiment in a line: Inhibition of human PSAT extracted from Escherichia coli BL21(DE3) cells preincubated with compound followed by L-OPS addition in presence of PLP.

Experiment [2] concerns the target T2, Serine racemase (Mus musculus, UniProt Q9QZX7).
T2 sequence (Q9QZX7 whole entry): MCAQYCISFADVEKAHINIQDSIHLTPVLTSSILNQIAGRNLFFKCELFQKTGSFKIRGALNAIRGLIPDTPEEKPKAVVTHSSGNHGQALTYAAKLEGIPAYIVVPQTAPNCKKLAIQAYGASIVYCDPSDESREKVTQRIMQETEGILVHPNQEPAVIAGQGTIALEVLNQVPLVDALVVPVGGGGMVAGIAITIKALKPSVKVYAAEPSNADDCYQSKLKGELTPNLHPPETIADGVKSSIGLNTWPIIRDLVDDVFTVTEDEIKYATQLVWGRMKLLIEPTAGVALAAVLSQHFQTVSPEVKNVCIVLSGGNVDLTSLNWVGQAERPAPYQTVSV
The experiment in a line: Inhibition of mouse SR using L-Serine as substrate incubated for 2 hrs in presence of PLP by spectrophotometer assay.

The target in experiment [3] is T3, Serine racemase (Homo sapiens) (UniProt Q9GZT4).
T3 sequence (whole entry): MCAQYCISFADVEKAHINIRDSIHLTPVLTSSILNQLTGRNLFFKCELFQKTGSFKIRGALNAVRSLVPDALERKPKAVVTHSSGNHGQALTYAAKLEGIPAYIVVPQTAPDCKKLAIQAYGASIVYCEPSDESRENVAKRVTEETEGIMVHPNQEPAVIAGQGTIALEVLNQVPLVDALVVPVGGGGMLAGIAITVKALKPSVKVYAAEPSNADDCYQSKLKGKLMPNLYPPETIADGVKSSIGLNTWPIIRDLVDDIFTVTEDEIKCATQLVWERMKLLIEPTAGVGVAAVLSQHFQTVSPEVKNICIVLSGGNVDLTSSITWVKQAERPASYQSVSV
Briefly: Inhibition of recombinant hexa-His tagged human SR extracted from Escherichia coli BL21 CodonPlusR (DE3)-RIL cells at 2 mM preincubated with compound followed by L-serine addition and measured after 10 mins.

Experiment [4] concerns the target T4, Serine racemase (Homo sapiens, UniProt Q9GZT4).
T4 sequence (Q9GZT4 whole entry): T3 sequence (whole entry)
Briefly: Inhibition of human SR extracted from Escherichia coli assessed as beta-eliminase activity using L-Ser as substrate by spectrophotometer assay.

Activity calls are given as the source filed them. The rule behind the calls is not given here.

As a reminder, the IC50 is the concentration needed to halve the response being measured. Turning to `NOC(Cc1ccc(-c2ccccc2)cc1)C(=O)O` (stereo not given), in experiment [1], the IC50 is 2.2 µM.

In the case of `N[C@H]1CONC1=O` [LEVCYCLOSERINE], the IC50 at Serine racemase [2] stood at 2270 µM.

As to `N[C@@H](Cc1ccccc1)C(=O)O`, the result in experiment [3] was inactive.

On to `O=C(O)CC(=O)O` [MALONIC ACID], for which the IC50 on Serine racemase [4] turned out to be 71 µM.

On to `O=C(O)[C@H]1C[C@H]1C(=O)O`, for which the IC50 at Serine racemase [4] was 3000 µM.
